These are literature values, as cited in US12605432B2, “Combinations for antigen based therapy” (Diamyd Medical AB, priority 2014, dated 2026).

Series [1] has as its system B cells, dendritic cells and T cells.
Series [2] concerns DCs. Conditions: decreased CD40, CD80, CD86, low IL-12, enhanced IL-10 secretion.
The subject of series [3] is mouse islet allografts; autoimmune diabetes.
Series [4] concerns T1D in NOD mice. Conditions: mouse, in vivo.
Series [5] deals with residual insulin secretion in T1D patients. Conditions: in vivo.
Series [6] concerns dendritic cells (DCs).
Series [7] relates to macrophage cultures.
Series [8] concerns blood glucose (BG) concentrations in patients. Conditions: diabetic and nondiabetic patients in general clinical practice.
Series [9] relates to high risk individuals.

Like-named read-outs stand apart in the source and are kept apart here.

Turning to `C=C1/C(=C\C=C2/CCC[C@]3(C)[C@@H]([C@H](C)CCCC(C)(C)O)CC[C@@H]23)C[C@@H](O)C[C@@H]1O` [1,25-Dihydroxyvitamin D(3)], in series [1], the “expression of IL-10 by dendritic cells and T cells” value is “enhances”; the “expression of IgE by B cells” value is on record as “inhibits”. Moreover, the DC phenotype result in [2] was “induces DCs with a tolerogenic phenotype”. Further, in [3] (mouse), the “tolerance to islet allografts” value is recorded as “induced tolerance to mouse islet allografts”. Further, in series [3] (non-hypercalcemic doses), the diabetes development entry is listed as “inhibited diabetes development”.
With `FC(F)(F)c1ccc(CNc2ccc(Cc3c[nH]c4ncccc34)cn2)cc1` [PLX647], the “effect on T1D in NOD mice” value in series [4] was “only marginal efficacy”.
As for `CC1=NS(=O)(=O)c2cc(Cl)ccc2N1` [diazoxide], in series [5], the “effect of protective agents” value was “no or transient effect”.
`CC(C)Cc1ccc(C(C)C(=O)O)cc1` (stereo not shown) [ibuprofen]: in [6], the “expression level of total MHC molecules and co-stimulatory molecules on DCs” value was “increased”; the “phagocytic activity of DCs” value is reported as “did not inhibit”. Further, in series [6] (dendritic cells), the “MHC class I and class II-restricted presentation of antigen” value was “inhibit MHC class I and class II-restricted presentation of antigen”.
For the molecule `Cc1ccc(NC(=O)c2ccc(CN3CCN(C)CC3)cc2)cc1Nc1nccc(-c2cccnc2)n1` [imatinib], in series [7], the IL-10 secretion result was “induced secretion of anti-inflammatory IL-10”. Besides, the “effect on T1D in NOD mice” value in [4] is “prevented and reversed T1D”.
For `NC(=O)c1cccnc1` [nicotinamide], the “effect of protective agents” value in series [5] is “no or transient effect”.
Take `CNC(=O)c1cc(Oc2ccc(NC(=O)Nc3ccc(Cl)c(C(F)(F)F)c3)cc2)ccn1` [sorafenib]: the “blood glucose (BG)” value in series [8] was “significant declines in BG”.
For Insulin: β cell specific auto-antigen, the prevention of diabetes entry is “may have a slight effect” in series [9] (oral administration) and “no effect” in series [9] (parenteral administration (DPT)).
